Read-outs that look alike come from different tables or passages of the source. Where a SMILES comes first, the peptide text is derived from it. Bridges are numbered along the chain shown (N, C = ends). [ ]: non-standard residue; d: D form. ξ: configuration not given here. ξE = NC(CCC(=O)O)C(=O)O; ξQ = NC(=O)CCC(N)C(=O)O; ξK = NCCCCC(N)C(=O)O; Ahx = NCCCCCC(=O)O; ξS = NC(CO)C(=O)O
Experiments:
PD1-PDL1 interaction = biological target: T1, PD1-PDL1 interaction (Homo sapiens, UniProt Q9NZQ7); test: CFSE mouse splenocyte proliferation assay (FACS), co-culture with MDA-MB-231 tumor cells expressing PD-L1; assay type: cell-based; details: for % Splenocyte proliferation: mouse splenocytes stimulated with anti-CD3/CD28, co-culture with MDAMB231 over expressing PDL1, 72 hrs, background 13, stimulated splenocytes 72
T1 construct: endogenous in cells; host or cells: MDA-MB-231 tumor cells (PD-L1); primary splenocytes of C57BL/6 mice (PD-1)
Method: The effect of PD1 derived peptides on mouse splenocyte proliferation inhibited by PDL1/PDL2 or tumor cells expressing PDL; analyzed by Fluorescence Activated Cell Shorting (FACS) method using CFSE labeling. Mouse splenocytes harvested from 6-8 weeks old C57 BL6 mice; RPMI 1640 (GIBCO, Cat #11875); DMEM with high glucose (GIBCO, Cat # D6429); Fetal Bovine Serum [Hyclone, Cat # SH30071.03]; Penicillin (10000 unit/ml)-Streptomycin (10,000 μg/ml) Liquid (GIBCO, Cat #15140-122); MEM Sodium Pyruvate solution 100 mM (100×), Liquid (GIBCO, Cat #11360); Nonessential amino acid (GIBCO, Cat #11140); L-Glutamine (GIBCO, Cat #25030); Anti-CD3 antibody (eBiosciences—16-0032); Anti-CD28 antibody (eBiosciences—16-0281); ACK lysis buffer (1 mL) (GIBCO, Cat #—A10492); Histopaque (density-1.083 gm/ml) (SIGMA 10831); Trypan blue solution (SIGMA-T8154); 2 ml Norm Ject Luer Lock syringe—(Sigma 2014-12); 40 μm nylon cell strainer (BD FALCON 35230); Hemacytometer (Bright line-SIGMA Z359629); FACS Buffer (PBS/0.1% BSA): Phosphate Buffered Saline (PBS) pH 7.2 (HiMedia TS1006) with 0.1% Bovine Serum Albumin (BSA) (SIGMA A7050) and sodium azide (SIGMA 08591); 5 mM stock solution of CFSE: CFSE stock solution was prepared by diluting lyophilized CFSE with 180 μL of Di methyl Sulfoxide (DMSO C2H6SO, SIGMA-D-5879) and aliquoted in to tubes for further use. Working concentrations were titrated from 10 μM to 1 μM. (eBioscience—650850-85); 0.05% Trypsin and 0.02% EDTA (SIGMA 59417C); 96-well format ELISA plates (Corning CLS3390); BD FACS caliber (E6016). Splenocytes harvested in a 50 ml falcon tube by mashing spleen in a 40 μm cell strainer were further treated with 1 ml ACK lysis buffer for 5 mins at room temperature. After washing with 9 ml of RPMI complete media, cells were re-suspended in 3 ml of 1×PBS in a 15 ml tube. 3 ml of histopaque was added very carefully to the bottom of the tube without disturbing overlaying splenocyte suspension. Spin the tube at 800×g for 20 mins at room temperature. Opaque layer of lymphocytes was collected carefully without disturbing/mixing any of the layers. Cells were washed twice with cold 1×PBS followed by total cell counting using trypan blue exclusion method and used further for cell based assays. Tumor cells were cultured and maintained in high glucose complete DMEM media. 1×10^5 tumor cells were plated in 96 well plates along with required conc. of PD1 derived peptide and allowed to adhere at 37° C. for 4 hrs. 1×10^6 cells/ml of harvested splenocytes were treated with 5 μM of CFSE in pre warmed 1×PBS/0.1% BSA solution for 10 mins at 37° C. Excess CFSE was quenched using 5 volumes of ice-cold culture media to the cells and incubated on ice for 5 mins. CFSE labeled splenocytes were further given three washes with ice cold complete DMEM media. CFSE labeled 1×10^5 splenocytes were added to above wells containing tumors cells and PD1 peptides. Splenocytes were stimulated with anti-CD3 and anti-CD28 antibody (1 μg/ml each) and the co-culture was further incubated for 72 hrs at 37° C. with 5% CO2. Cells were harvested and washed thrice with ice cold FACS buffer and % proliferation was analyzed using a FACS caliber with 488 nm excitation and 521 nm emission filters. Each experimental condition was carried out in triplicates and each experiment at least carried out three times % splenocyte proliferation was analyzed using cell quest FACS program and fold induction was calculated by normalizing individual values to % background proliferation Fold Induction=% splenocyte proliferation/% background proliferation Stimulated splenocytes: Splenocytes+anti-CD3/CD28 stimulation Background proliferation: Splenocytes+anti-CD3/CD28+PDL or Tumor Compound effect was examined by adding required conc. of compound to anti-CD3/CD28 stimulated splenocytes in presence of ligand (PDL-1/PDL-2) or tumor cells.

B16F10 cells = test: In vivo efficacy on lung metastasis in B16F10 subcutaneous melanoma model; details: C57/Black6 female mice, 5 mg/kg subcutaneously once daily for fourteen days
Method: C57/Black6 female mice (Aurigene, Bangalore, India) aged 6 to 8 weeks were used for the experiment. Animals were acclimatized for a week in the experimental room before conducting the experiment. On day 0, B16F10 cells grown in DMEM containing 10% FBS at 70 to 75% confluency were harvested and 0.1×10^6 cells per animal were injected to mice subcutaneously on the right flank region. On day 1, peptide (Compound #2) at 5 mg/kg dose dissolved in PBS, pH 7.4 was dosed subcutaneously at the rate of 10 ml/kg volume for fourteen days once daily. Vehicle control group of mice received only saline. Taxol at 5 MPK (i.p) with qd dosing was used as reference in this study. Each group consisted of ten animals. Body weight and clinical signs were recorded daily. […] At the end of 14 days of dosing period lung was harvested and analysed for metastasis by counting the black nodules.

[1] = % splenocyte proliferation/% background proliferation, MDAMB231 over expressing PDL1, background 1.0, stimulated splenocytes 5.5

T1 sequence (Q9NZQ7 19-290): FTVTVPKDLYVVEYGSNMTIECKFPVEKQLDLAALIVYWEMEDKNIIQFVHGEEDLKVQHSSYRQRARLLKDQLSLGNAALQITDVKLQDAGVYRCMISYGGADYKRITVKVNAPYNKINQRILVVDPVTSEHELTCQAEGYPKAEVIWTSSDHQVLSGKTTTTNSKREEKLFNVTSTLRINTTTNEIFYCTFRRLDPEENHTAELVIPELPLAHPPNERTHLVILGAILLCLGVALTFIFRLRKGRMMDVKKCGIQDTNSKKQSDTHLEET

SMILES | % Splenocyte proliferation (PD1-PDL1 interaction) [%] | clinical signs (B16F10 cells) | Fold induction (PD1-PDL1 interaction; [1]) | Fold induction (PD1-PDL1 interaction) | body weight reduction during the period of dosing (B16F10 cells)
C[C@@H](O)[C@@H]1NC(=O)[C@H](CC(N)=O)NC(=O)C(CO)NC(=O)C(CCC(N)=O)NC(=O)[C@H](Cc2ccccc2)NC(=O)[C@H](CO)NC(=O)[C@H](CCC(=O)O)NC(=O)[C@H](CO)NC1=O (stereo partly shown) [Compound 14] (cyclo(ESF[ξQ][ξS]NTS)) | 55 |  | 4.2 |  | 
C[C@@H](O)[C@@H]1NC(=O)[C@H](CCC(=O)O)NC(=O)C(CO)NC(=O)CCC(C(N)=O)NC(=O)[C@H](Cc2ccccc2)NC(=O)[C@H](CO)NC(=O)[C@H](CCCCN)NC(=O)[C@H](CO)NC1=O (stereo partly shown) [Compound 20] ([ξS]ETSKSF[ξE]-NH2; lactam N-8) | 36 |  | 2.8 |  | 
C[C@@H](O)[C@@H]1NC(=O)[C@H](CC(N)=O)NC(=O)C(CO)NC(=O)C(CCC(N)=O)NC(=O)CCCCCNC(=O)[C@H](Cc2ccccc2)NC(=O)[C@H](CO)NC(=O)[C@H](CCC(=O)O)NC(=O)[C@H](CO)NC1=O (stereo partly shown) [Compound 15] (cyclo([Ahx][ξQ][ξS]NTSESF)) | 53 |  |  | 4 | 
C[C@@H](O)[C@@H]1NC(=O)[C@H](CCC(=O)O)NC(=O)C(CO)NC(=O)C(CCC(N)=O)NC(=O)[C@H](Cc2ccccc2)NC(=O)[C@H](CO)NC(=O)[C@H](CCCCN)NC(=O)[C@H](CO)NC1=O (stereo partly shown) [Compound 16] (cyclo(ETSKSF[ξQ][ξS])) | 36 |  | 2.8 |  | 
C[C@@H](O)[C@@H]1NC(=O)[C@H](CCC(=O)O)NC(=O)C(CO)NC(=O)CCCCCNC(=O)C(CCC(N)=O)NC(=O)[C@H](Cc2ccccc2)NC(=O)[C@H](CO)NC(=O)[C@H](CCCCN)NC(=O)[C@H](CO)NC1=O (stereo partly shown) [Compound 17] (cyclo([Ahx][ξS]ETSKSF[ξQ])) | 42 |  | 3.2 |  | 

Now from value to compound, other results behind:

% Splenocyte proliferation (PD1-PDL1 interaction) [%] | clinical signs (B16F10 cells) | SMILES | Fold induction (PD1-PDL1 interaction; [1]) | Fold induction (PD1-PDL1 interaction) | body weight reduction during the period of dosing (B16F10 cells)
60 |  | C[C@@H](O)[C@@H]1NC(=O)C(NC(=O)[C@@H](N)CO)CCCCNC(=O)CCC(C(=O)N[C@@H](CO)C(=O)N[C@@H](Cc2ccccc2)C(N)=O)NC(=O)[C@H](CO)NC1=O (stereo partly shown) [Compound 1] (H-S[ξK]TS[ξE]SF-NH2; lactam 2-5) |  | 4.6 | 
39 |  | CC[C@H](C)[C@H](N)C(=O)NC1CCC(=O)NCCCCC(C(=O)N[C@H](C(=O)NC(CCC(N)=O)C(=O)O)C(C)C)NC(=O)[C@H](CO)NC(=O)[C@H](CCSC)NC1=O (stereo partly shown) [Compound 12] (H-I[ξE]MS[ξK]V[ξQ]-OH; lactam 2-5) | 3.0 |  | 
54 |  | CC[C@H](C)[C@H](N)C(=O)NC1CCC(=O)NCCCCC(C(=O)N[C@@H](CO)C(=O)NC(CCC(N)=O)C(=O)O)NC(=O)[C@H](CO)NC(=O)[C@H](CCSC)NC1=O (stereo partly shown) [Compound 11] (H-I[ξE]MS[ξK]S[ξQ]-OH; lactam 2-5; N-terminus assumed) | 4.2 |  | 
57 | no clinical signs observed | C[C@@H](O)[C@@H]1NC(=O)[C@@H](NC(=O)[C@@H](N)CO)CCC(=O)NCCCC[C@@H](C(=O)N[C@@H](CO)C(=O)N[C@@H](Cc2ccccc2)C(N)=O)NC(=O)[C@H](CO)NC1=O [Compound 2] (H-SETSKSF-NH2; lactam 2-5) | 4.3 |  | no body weight reduction
36 |  | C[C@@H](O)[C@@H]1NC(=O)C(NC(=O)[C@@H](N)CCC(=O)O)CCC(=O)NCCCCC(C(=O)N[C@@H](CO)C(=O)N[C@@H](Cc2ccccc2)C(N)=O)NC(=O)[C@H](CO)NC1=O (stereo partly shown) [Compound 4] (H-E[ξE]TS[ξK]SF-NH2; lactam 2-5; N-terminus assumed) | 2.8 |  | 
52 |  | CC(C)[C@H](NC(=O)C1CCCCNC(=O)CCC(NC(=O)[C@@H](N)CO)C(=O)N[C@@H]([C@@H](C)O)C(=O)N[C@@H](CO)C(=O)N1)C(=O)N[C@@H](Cc1ccccc1)C(N)=O (stereo partly shown) [Compound 7] (H-S[ξE]TS[ξK]VF-NH2; lactam 2-5; N-terminus assumed) | 4.0 |  | 
55 |  | CC[C@H](C)[C@H](N)C(=O)NC1CCC(=O)NCCCCC(C(=O)N[C@@H](CO)C(=O)N[C@@H](Cc2ccccc2)C(N)=O)NC(=O)[C@H](CO)NC(=O)[C@H]([C@@H](C)O)NC1=O (stereo partly shown) [Compound 6] (H-I[ξE]TS[ξK]SF-NH2; lactam 2-5; N-terminus assumed) | 4.2 |  | 
42 |  | CC[C@H](C)[C@H](NC(=O)[C@H](CO)NC(=O)C1CCCCNC(=O)CCC(NC(=O)[C@@H](N)CO)C(=O)N[C@@H]([C@@H](C)O)C(=O)N[C@@H](CO)C(=O)N1)C(N)=O (stereo partly shown) [Compound 5] (H-S[ξE]TS[ξK]SI-NH2; lactam 2-5; N-terminus assumed) | 3.2 |  | 
